The test system of assay [1] is human platelet rich plasma (PRP). Briefly: ADP induced platelet aggregation assay. The settings on record: Homo sapiens, Platelet, 5 min, read-out: PA IC50 (μM) @ 10 μM ADP, human PRP, 10 μM ADP, AUC at 5 minute.
Assay [2] deals with cloned human P2Y1 receptors (Homo sapiens (Human), UniProt P47900). Briefly: Binding Assay B - Scintillation Proximity Assay (SPA) for P2Y1 binding, [33P] 2MeS-ADP. The settings on record: SPA, 0.3 nM [33P] 2MeS-ADP, Cheng-Prusoff; read-out: P2Y1 Ki (nM) using binding assay B. As to the method:
Binding Assay B—Scintillation Proximity Assay (SPA) for P2Y1 Binding
A SPA membrane binding assay was used to identify inhibitors of [^33P] […] Reactions were allowed to proceed to completion at room temperature for 1 hour followed by centrifugation of the plate for 5 min. About 40 μL of the aqueous solution was aspirated. Plates were sealed and the [^33P]
(In a scintillation proximity assay essentially only radioactivity close to the scintillant gives light.)

As a reminder, the IC50 is the point on the concentration scale where inhibition reaches its midpoint. What is called Ki is a dissociation constant, usually derived from enzyme kinetics or from competition with a known ligand.

SMILES strings stand for the structures.

Chain of cloned human P2Y1 receptors (P47900 whole entry): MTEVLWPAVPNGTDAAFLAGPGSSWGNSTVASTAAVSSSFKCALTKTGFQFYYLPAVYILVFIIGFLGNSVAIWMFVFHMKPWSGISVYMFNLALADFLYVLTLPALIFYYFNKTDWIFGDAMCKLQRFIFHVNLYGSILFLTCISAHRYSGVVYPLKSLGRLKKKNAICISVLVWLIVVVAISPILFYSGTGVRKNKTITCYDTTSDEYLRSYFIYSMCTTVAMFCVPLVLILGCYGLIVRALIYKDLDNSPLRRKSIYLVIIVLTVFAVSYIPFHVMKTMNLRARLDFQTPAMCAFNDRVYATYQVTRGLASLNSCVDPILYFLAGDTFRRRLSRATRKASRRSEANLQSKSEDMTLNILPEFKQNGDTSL

As for `CC(C)n1nc(-c2c(F)cc(O)c3c2C(C)(C)CN3c2ccccc2NC(=O)Nc2nc3ccc(F)cc3s2)cc1C(F)(F)F` [Example 253, 1-(2-(5-Fluoro-7-hydroxy-4-(1-isopropyl-5-(trifluoromethyl)-1H-pyrazol-3-yl)-3,3-dimethylindolin-1-yl)phenyl)-3-(6-fluorobenzo[d]thiazol-2-yl)urea], the IC50 in assay [1] came to 0.12 µM. In addition, the Ki in assay [2] came to 33.4 nM.

In the case of `Cc1c(-c2c(F)cc(O)c3c2C(C)(C)CN3c2ccccc2NC(=O)Nc2ccc(OC(F)(F)F)cc2)cnn1-c1ccccc1` [Example 186, 1-(2-(5-Fluoro-7-hydroxy-3,3-dimethyl-4-(5-methyl-1-phenyl-1H-pyrazol-4-yl)indolin-1-yl)phenyl)-3-(4-(trifluoromethoxy)phenyl)urea], the IC50 in assay [1] was found to be 0.67 µM. Besides, the Ki in assay [2] turned out to be 17.6 nM.

Regarding `CC1(C)CN(c2ccccc2NC(=O)Nc2ccc(OC(F)(F)F)cc2)c2c(O)cc(F)c(-c3ccc(F)cc3)c21` [Example 194, 1-(2-(5-Fluoro-4-(4-fluorophenyl)-7-hydroxy-3,3-dimethylindolin-1-yl)phenyl)-3-(4-(trifluoromethoxy)phenyl)urea], the IC50 in assay [1] was 0.26 µM. Besides, the Ki in assay [2] was 6.7 nM.

As for `CC1(C)CN(c2ccccc2NC(=O)Nc2ccc(OC(F)(F)F)cc2)c2c(O)cc(F)c(-c3ccc(C(F)(F)F)cc3)c21` [Example 216, 1-(2-(5-Fluoro-7-hydroxy-3,3-dimethyl-4-(4-(trifluoromethyl)phenyl)indolin-1-yl)phenyl)-3-(4-(trifluoromethoxy)phenyl)urea], the IC50 in assay [1] was found to be 0.14 µM. For the same compound, the Ki in assay [2] stood at 54.7 nM.

`CC1(C)CN(c2ccccc2NC(=O)Nc2ccc(OC(F)(F)F)cc2)c2c(O)ccc(C3=NCC(C(F)(F)F)O3)c21` (stereo not shown) [Example 105, 1-(2-(7-Hydroxy-3,3-dimethyl-4-(5-(trifluoromethyl)-4,5-dihydrooxazol-2-yl)indolin-1-yl)phenyl)-3-(4-(trifluoromethoxy)phenyl)urea]: the IC50 in assay [1] was found to be 1.57 µM. Further, the Ki in assay [2] was determined as 8.8 nM.

As to `CC1(C)CN(c2ccccc2NC(=O)Nc2csc(Cl)n2)c2c(O)cc(F)c(-c3ccc(F)cc3)c21` [Example 212, 1-(2-Chlorothiazol-4-yl)-3-(2-(5-fluoro-4-(4-fluorophenyl)-7-hydroxy-3,3-dimethylindolin-1-yl)phenyl)urea], the IC50 in assay [1] came out at 0.16 µM. In addition, in assay [2], the inhibitory constant (Ki) is 4.9 nM.

With `CC1(C)CN(c2ccccc2NC(=O)Nc2ccc(OC(F)(F)F)cc2)c2c(O)cc(F)c(-c3cc(F)nc(F)c3)c21` [Example 161, 1-(2-(4-(2,6-Difluoropyridin-4-yl)-5-fluoro-7-hydroxy-3,3-dimethylindolin-1-yl)phenyl)-3-(4-(trifluoromethoxy)phenyl)urea], the IC50 in assay [1] turned out to be 0.16 µM. Also, the Ki in assay [2] is 6.6 nM.

Regarding `CC1(C)CN(c2ccccc2NC(=O)Nc2nc3ccc(Cl)cc3s2)c2c(O)cc(F)c(-c3cc(C(F)(F)F)no3)c21` [Example 265, 1-(6-Chlorobenzo[d]thiazol-2-yl)-3-(2-(5-fluoro-7-hydroxy-3,3-dimethyl-4-(3-(trifluoromethyl)isoxazol-5-yl)indolin-1-yl)phenyl)urea], the IC50 in assay [1] was 0.4 µM. In assay [2], the Ki came out at 49.9 nM.

With `CC1(C)CN(c2ccccc2NC(=O)Nc2nc3ccc(Br)cc3s2)c2c(O)ccc(Br)c21` [Example 42, 1-(2-(4-Bromo-7-hydroxy-3,3-dimethylindolin-1-yl)phenyl)-3-(6-bromobenzo[d]thiazol-2-yl)urea], in assay [1], the IC50 is 0.45 µM. Besides, in assay [2], the Ki worked out at 27.7 nM.

Regarding `CC(C)(C)c1ccc(-c2c(F)cc(O)c3c2C(C)(C)CN3c2ccccc2NC(=O)Nc2csc(Cl)n2)cc1` [Example 242, 1-(2-(4-(4-(tert-Butyl)phenyl)-5-fluoro-7-hydroxy-3,3-dimethylindolin-1-yl)phenyl)-3-(2-chlorothiazol-4-yl)urea], the IC50 in assay [1] is 0.06 µM. Moreover, in assay [2], the Ki was found to be 12.6 nM.

`CCC1(CC)CN(c2ccccc2NC(=O)Nc2ccc(C3CCN(CC(C)(C)C)CC3)cc2)c2c(O)ccc(F)c21` [Example 4, 1-(2-(3,3-Diethyl-4-fluoro-7-hydroxyindolin-1-yl)phenyl)-3-(4-(1-neopentylpiperidin-4-yl)phenyl)urea]: the IC50 in assay [1] was 0.36 µM. Also, the Ki in assay [2] came out at 5.6 nM.

With `CC1(C)CN(c2ccccc2NC(=O)Nc2ccc(OC(F)(F)F)cc2)c2c(O)cc(F)c(-c3cccc(C#N)c3)c21` [Example 247, 1-(2-(4-(3-Cyanophenyl)-5-fluoro-7-hydroxy-3,3-dimethylindolin-1-yl)phenyl)-3-(4-(trifluoromethoxy)phenyl)urea], in assay [1], the IC50 came to 0.87 µM. In assay [2], the Ki was 10 nM.

Regarding `CC1(C)CN(c2ccccc2NC(=O)Nc2nc3ccc(F)cc3s2)c2c(O)cc(F)c(-c3ccc(C(F)(F)F)nc3)c21` [Example 158, 1-(2-(5-Fluoro-7-hydroxy-3,3-dimethyl-4-(6-(trifluoromethyl)pyridin-3-yl)indolin-1-yl)phenyl)-3-(6-fluorobenzo[d]thiazol-2-yl)urea], the IC50 in assay [1] came to 0.2 µM. The inhibition constant Ki in assay [2] was found to be 5.7 nM.

For the compound `CC1(CC(F)(F)F)CN(c2ccccc2NC(=O)Nc2ccc(OC(F)(F)F)cc2)c2c(O)ccc(Cl)c21` (stereo not shown) [Example 78, 1-(2-(4-Chloro-7-hydroxy-3-methyl-3-(2,2,2-trifluoroethyl)indolin-1-yl)phenyl)-3-(4-(trifluoromethoxy)phenyl)urea], the IC50 in assay [1] came to 2.92 µM. Moreover, the Ki in assay [2] was found to be 7.7 nM.

On to `CC1(C)CN(c2ccccc2NC(=O)Nc2ccc(OC(F)(F)F)cc2)c2c(O)cc(F)c(-c3cnc(Cl)cn3)c21` [Example 163, 1-(2-(4-(5-Chloropyrazin-2-yl)-5-fluoro-7-hydroxy-3,3-dimethylindolin-1-yl)phenyl)-3-(4-(trifluoromethoxy)phenyl)urea], for which the IC50 in assay [1] came out at 0.26 µM. Also, the Ki in assay [2] is 43.1 nM.

Take `Cc1cccc2nc(-c3ccc(O)c4c3C(C)(C)CN4c3ccccc3NC(=O)Nc3ccc(OC(F)(F)F)cc3)oc12` [Example 93, 1-(2-(7-Hydroxy-3,3-dimethyl-4-(7-methylbenzo[d]oxazol-2-yl)indolin-1-yl)phenyl)-3-(4-(trifluoromethoxy)phenyl)urea]: the IC50 in assay [1] was found to be 0.8 µM. The Ki in assay [2] was found to be 52 nM.

For the compound `CC(C)CN1CCCC1c1ccc(NC(=O)Nc2ccccc2N2CC(C)(C)c3c(-c4ccc(F)cc4)ccc(O)c32)cc1` (stereo not shown) [Example 200, 1-(2-(4-(4-Fluorophenyl)-7-hydroxy-3,3-dimethylindolin-1-yl)phenyl)-3-(4-(1-isobutylpyrrolidin-2-yl)phenyl)urea], the IC50 in assay [1] was determined as 0.05 µM. The Ki in assay [2] came out at 4.6 nM.

Turning to `CC(C)CN1CCCC1c1ccc(NC(=O)Nc2ccccc2N2CC(C)(C)c3c(F)ccc(O)c32)cc1` (stereo not shown) [Example 34, 1-(2-(4-Fluoro-7-hydroxy-3,3-dimethylindolin-1-yl)phenyl)-3-(4-(1-isobutylpyrrolidin-2-yl)phenyl)urea], in assay [1], the IC50 worked out at 1.07 µM. Moreover, in assay [2], the Ki was determined as 9.8 nM.

On to `CC(C)CN1CCCC1c1ccc(NC(=O)Nc2ccccc2N2CC(C)(C)c3cccc(O)c32)cc1` (stereo not shown) [Example 11, 1-(2-(7-Hydroxy-3,3-dimethylindolin-1-yl)phenyl)-3-(4-(1-isobutylpyrrolidin-2-yl)phenyl)urea], for which the half-inhibitory concentration (IC50) in assay [1] was found to be 1.08 µM. For the same compound, the inhibition constant Ki in assay [2] worked out at 36.8 nM.

Consider `CC(C)(C)c1ccccc1Oc1ncccc1NC(=O)Nc1ccccc1N1CC(C)(C)c2ccccc21` [Comparator 3, reference compound], for which the IC50 in assay [1] is above 20 µM. The Ki in assay [2] turned out to be 759 nM.

(Values after patent US9540323B2 (BRISTOL-MYERS SQUIBB COMPANY, priority 2012, dated 2017).)
